Experimental data published in PubChem BioAssay (NCI).
“And” between values parts separate entries of the source, which are not always exact repeats. Identical values can stand only once.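 48-hour exposure; five concentrations; linearly interpolated endpoints. GI50 is the concentration that inhibits growth by half. TGI: total growth inhibition.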

Legend:
Experiment in all cases: inhibition of tumour cell growth, NCI panel, 48 h
[1] = tested on: RXF 393 renal
[2] = tested on: A549 NSCLC
[3] = tested on: M14 melanoma
[4] = tested on: HL-60(TB) leukemia
[5] = tested on: HCT-116 colon
[6] = tested on: MDA-MB-435
[7] = tested on: SK-MEL-5 melanoma
[8] = tested on: SN12C renal
[9] = tested on: COLO 205 colon
[10] = tested on: SW-620 colon

| SMILES | TGI [1] | TGI [2] | TGI [3] | TGI [4] | TGI [5] | TGI [6] | TGI [7] | TGI [8] | TGI [9] | TGI [10] | GI50 [2] | GI50 [4] | GI50 [7] | GI50 [1] | GI50 [3] | GI50 [5] | GI50 [6] | GI50 [8] | GI50 [9] | GI50 [10] |
| --- | --- | --- | --- | --- | --- | --- | --- | --- | --- | --- | --- | --- | --- | --- | --- | --- | --- | --- | --- | --- |
| C=C(Cl)/C(=C\Cl)CCC(Br)C(C)C (stereo not drawn) | > 100 µM | > 100 µM | > 100 µM | > 100 µM | > 100 µM | > 100 µM | > 100 µM | > 100 µM | > 100 µM | 37.9 µM |  |  |  |  |  |  |  |  |  |  |
| CN(C)c1nc(=NCc2ccncc2)ss1 | 92.7 µM | > 100 µM | 36.1 µM | 47 µM | 40.7 µM | > 100 µM | > 100 µM | 36 µM | > 100 µM | 50.7 µM | > 100 µM | 14.2 µM | > 100 µM |  |  |  |  |  |  |  |
| NC(CSCc1ccccc1)C(=O)O (stereo not drawn) | > 100 µM | > 100 µM | > 100 µM | > 100 µM | > 100 µM | > 100 µM | > 100 µM | > 100 µM | > 100 µM | > 100 µM |  |  |  |  |  |  |  |  |  |  |
| COc1cc2c(cc1OC)C1c3ccccc3CCN1CC2 (stereo not drawn) | > 100 µM | > 100 µM | > 100 µM | 80.3 µM | > 100 µM | > 100 µM | > 100 µM | > 100 µM | > 100 µM | > 100 µM |  |  |  |  |  |  |  |  |  |  |
| CC(C)=C[C@@H]1C[C@H](n2cc(C)c(=O)[nH]c2=O)ON1CCO | > 100 µM | > 100 µM | > 100 µM | > 100 µM | > 100 µM | > 100 µM | > 100 µM | > 100 µM | > 100 µM | > 100 µM |  |  |  |  |  |  |  |  |  |  |
| O=C(O)[C@@H]1C[C@@H](O)CN1C(=O)OCc1ccccc1 | > 100 µM | > 100 µM | > 100 µM | > 100 µM | > 100 µM | > 100 µM | > 100 µM | > 100 µM | > 100 µM | > 100 µM |  |  |  |  |  |  |  |  |  |  |
| C=C1C(=O)OC2/C=C(\CO)C(OC(C)=O)CC(O)/C(C)=C/C(OC(=O)C(C)CC)C12 (stereo not drawn) | 40 µM and 49.8 µM | > 100 µM | 31.1 µM and 33.3 µM | 39.6 µM and 30.9 µM | 27.6 µM and 42.5 µM | 47.6 µM | 33 µM and 30.9 µM | 36 µM and 36.6 µM | 28.8 µM and 24.3 µM | 24.4 µM and 78 µM |  |  |  |  |  |  |  |  |  |  |
| Nc1c2ccccc2nc2c1ccc1ncccc12 | 98.4 µM | > 100 µM | 43 µM | 20.4 µM | > 100 µM | > 100 µM | > 100 µM | > 100 µM | > 100 µM | > 100 µM |  |  |  |  |  |  |  |  |  |  |
| O=C1CCSSCCC(=O)NCCN1 | > 100 µM | > 100 µM | > 100 µM | > 100 µM | > 100 µM | > 100 µM | > 100 µM | > 100 µM | > 100 µM | > 100 µM |  |  |  |  |  |  |  |  |  |  |
| O=C1NCCCc2nonc21 | > 100 µM | > 100 µM | > 100 µM | > 100 µM | > 100 µM | > 100 µM | > 100 µM | > 100 µM | > 100 µM | > 100 µM |  |  |  |  |  |  |  |  |  |  |
| Cc1ccccc1OC(C)C(=O)NN1C(=O)CC(=O)N(c2ccc(Cl)cc2)C1=S (stereo not drawn) | 78.3 µM | > 100 µM | > 100 µM | 39.8 µM | 53 µM | > 100 µM | 74.4 µM | > 100 µM | 68.3 µM | > 100 µM |  |  |  |  |  |  |  |  |  |  |
| COc1ccc2c(c1)O/C(=C\c1cccc(OCC(=O)Nc3nc4c(s3)CCCC4)c1)C2=O | 4.48 µM | > 100 µM | > 100 µM | 18.5 µM | > 100 µM | > 100 µM | > 100 µM | > 100 µM | > 100 µM | > 100 µM | 29 µM | 3.32 µM | > 71.8 µM | 2.11 µM | > 100 µM | > 43.8 µM | > 43.3 µM | 4.78 µM | > 100 µM | > 100 µM |
| COc1ccc(/C(=N/O)c2ccccc2-c2nc3ccccc3c(=O)n2-c2ccc(S(=O)(=O)Nc3ncccn3)cc2)cc1C | 19.8 µM | > 31.6 µM | > 31.6 µM | 20 µM | 22.1 µM | 27.3 µM | 25.4 µM | > 31.6 µM | > 31.6 µM | > 31.6 µM |  |  |  |  |  |  |  |  |  |  |
| Cc1cc(-c2nc3c(O)cccc3s2)ccc1N | > 100 µM | 47.9 µM | 39.5 µM | 44.5 µM | 49 µM | 38.2 µM | > 100 µM | 90.7 µM | > 100 µM | > 100 µM |  |  |  |  |  |  |  |  |  |  |
| CCNC(=O)Nc1ccccn1 | > 100 µM | > 100 µM | > 100 µM | > 100 µM | > 100 µM | > 100 µM | > 100 µM | > 100 µM | > 100 µM | > 100 µM |  |  |  |  |  |  |  |  |  |  |
| CC(C)(C)NC(=O)[C@H]1CC[C@H]2[C@@H]3CC=C4NC(=O)CC[C@]4(C)[C@H]3CC[C@]12C | > 100 µM | > 100 µM | > 100 µM | > 100 µM | > 100 µM | > 100 µM | > 100 µM | > 100 µM | > 100 µM | > 100 µM |  |  |  |  |  |  |  |  |  |  |
| C=C1[C@@H](O)C[C@@]23CC[C@@H]4[C@@]5(C)CC[C@@H](OC(C)=O)C(C)(C)[C@@H]5C[C@@H](OC5OC(COC(C)=O)C(O)C(O)C5O)[C@@]4(C)C2=CC[C@H]3[C@H]1C (stereo partly drawn) | 18.7 µM | 16.8 µM | 16.4 µM | 4.86 µM | 10.7 µM | 15.3 µM | 12.3 µM | 21 µM | 4.36 µM | 21.7 µM |  |  |  |  |  |  |  |  |  |  |
| O=C(O)C1CC(c2ccc(F)cc2)=Nc2ccc(F)cc2S1 (stereo not drawn) | > 100 µM | > 100 µM | > 100 µM | > 100 µM | > 100 µM | > 100 µM | > 100 µM | > 100 µM | > 100 µM | > 100 µM |  |  |  |  |  |  |  |  |  |  |
| O=C(Nc1cccc2cnccc12)c1cc2c(cc1Cl)Sc1nccn1S2(=O)=O | 24.4 µM | > 100 µM | > 100 µM | 21.8 µM | 20 µM | 34.1 µM | 26.2 µM | 30.5 µM | 30.8 µM | 50.8 µM |  |  |  |  |  |  |  |  |  |  |
| CC1(C)O[C@@H]2COC(=O)[C@@H]2O1 | > 100 µM | > 100 µM | > 100 µM | > 100 µM | > 100 µM | > 100 µM | > 100 µM | > 100 µM | > 100 µM | > 100 µM |  |  |  |  |  |  |  |  |  |  |
| CC1(C)C(c2ccccc2)=[N+]([O-])C(C)(C)N1O | > 10 µM | > 10 µM | > 10 µM | > 10 µM | > 10 µM | > 10 µM | > 10 µM | > 10 µM | > 10 µM | > 10 µM |  |  |  |  |  |  |  |  |  |  |
| O=c1c2ncn(C3CC(O)C(CO)O3)c2nnn1Cc1ccccc1[N+](=O)[O-] (stereo not drawn) | 94.1 µM | > 100 µM | > 100 µM | > 100 µM | > 100 µM | > 100 µM | > 100 µM | > 100 µM | > 100 µM | > 100 µM |  |  |  |  |  |  |  |  |  |  |
| CCN(CC)CCOC(NC(C)=O)(c1ccccc1)c1ccccc1 | > 100 µM | > 100 µM | > 100 µM | > 100 µM | > 100 µM | > 100 µM | > 100 µM | > 100 µM | > 100 µM | > 100 µM |  |  |  |  |  |  |  |  |  |  |
